Series [1] in a line: Weight gain in chickens (cockerels). The series is classed as in vivo, P-46 breed. The protocol:
The effect of the peptide on weight gain in chickens was examined. Tests were conducted on chickens of egg oriented productivity, "P-46" breed. 24 hour old cockerels were divided in 5 groups, 13 cockerels in each--one control group and 4 test groups.
The birds were given a full diet till they reached the age of 10 weeks. 100% of birds in both the control and test groups survived.
After 10 weeks, the cockerels were killed and examined.
Quality of the cockerel meat was tested on an organoleptic basis.

A further series in a line: Weight gain in pigs. It is filed as in vivo. The protocol:
The purpose of the first stage of testing was to determine the optimal dose of the peptide necessary to achieve the desired weight gain and the most beneficial manner of administering the peptide. The first stage of testing was conducted over a period of 100 days.
The pigs were divided into seven groups of ten animals each. The animals were all aged 4-5 months, and weighed about the same. There was one control group and six test groups. All the groups were given an ordinary diet.
Test groups 2, 3, and 4 were administered the peptide (1.0, 5.0, 10.0 μg kg/body weight) with feed, for 20 days each month with a 10 day break. Test groups 5, 6, and 7 were administered the peptide by injections of 0.01% water solutions for five days each month with a 25 day break (0.1, 0.5 and 1.0 μg per body weight).
Physiological examinations and biochemical tests were carried out during the experiment. The pigs were weighed on the 30th, 65th and 100th days of the experiment. […] Administration of 1 μg per 1 kg of body weight by intramuscular injections achieved a weight gain 18% higher than the control group (group 6).
The second stage of the experiment lasted 95 days, after which the animals were killed. The second stage of the experiment was carried out only with groups three and six, in order to determine which method of administration of the peptide produced the best results. […]

Series [2] is described as follows: Weight gain in young bulls. It is filed as in vivo. To be noted: during the experiment. The protocol: There were 7 groups of animals having approximately the same weight, with 12 young bulls in each group. The age of the animals was 2 months. There were 6 test groups and one control. The test animals were administered Sedatin with water before they were fed or as intramuscular injections in the amounts shown in Table 12. All animals received the same diet and were kept in the same conditions. Two animals in the control group fell ill during the experiment, and were replaced by analogs.
Two groups, one control and one test, were chosen for the second stage of the experiment. The test group was administered the peptide mixed with feed, in the amount of 10 μg per 1 kg of body weight. The control group was not administered any of the peptide. The data was biometrically processed.

Non-standard residues stand in square brackets, D forms with d. Residues, ends and D or L forms follow the SMILES beside them.

Turning to `C[C@@H](NC(=O)[C@H](Cc1ccc(O)cc1)NC(=O)[C@@H](N)CCCNC(=N)N)C(=O)N[C@@H](Cc1ccccc1)C(=O)NCC(=O)O` [H-Arg-Tyr-D-Ala-Phe-Gly-OH] (H-RY[dA]FG-OH), the “quality of cockerel meat (colour, smell, consistency, taste), organoleptic” value in series [1] (all groups) is given as “the same as in the control group”. In addition, the birds survived in series [1] (test groups, to age of 10 weeks) came to 100%. In the series “Weight gain in pigs”, the “biochemical and physicochemical tests” value is recorded as “no deviation from the control group”; the “quality characteristics (pathological changes, decrease of fat layer, etc.)” value was “No changes were observed”. In addition, the “temperature, pulse and breath-rate” value in series [2] is listed as “no deviation from the control group”. The solubility in alcohol result (alcohol) is on record as “slightly soluble”. The solubility in chloroform entry (chloroform) is recorded as “practically insoluble”. The solubility in water entry (water) is listed as “soluble”.

The record behind these values is US6248716A, “Peptide, a method for its preparation and a pharmaceutical composition containing the peptide” (priority 1999, dated 2001).
